Tested on: rice blast fungi
Type: in vivo, Pyricularia grisea

Row | SMILES | Inhibiting Ratio (%) (at 250 ppm)
1 | Cl.Cn1c(CC(=O)Nc2ccc(Cl)cc2)csc1=Nc1ccc(F)c(Cl)c1 [Compound 155, 2-(3-chloro-4-fluorophenylimino)-3-methyl-4-[N-(4-chlorophenyl)carbamoylmethyl]-1,3-thiazol-4-ine hydrochloride] | 96%
2 | Cl.Cn1c(CC(=O)Nc2ccc(Cl)cc2)csc1=Nc1cccc(Br)c1 [Compound 156, 2-(3-bromophenylimino)-3-methyl-4-[N-(4-chlorophenyl)carbamoylmethyl]-1,3-thiazol-4-ine hydrochloride] | 96%
3 | Cl.Cn1c(CC(=O)Nc2ccc(Cl)cc2)csc1=Nc1ccc(Cl)cc1F [Compound 158, 2-(4-chloro-2-fluorophenylimino)-3-methyl-4-[N-(4-chlorophenyl)carbamoylmethyl]-1,3-thiazol-4-ine hydrochloride] | 90%
4 | Cl.Cn1c(CC(=O)Nc2ccc(Cl)cc2)csc1=Nc1ccc(F)cc1F [Compound 159, 2-(2,4-difluorophenylimino)-3-methyl-4-[N-(4-chlorophenyl)carbamoylmethyl]-1,3thiazol-4-ine hydrochloride] | 92%
5 | Cl.Cn1c(CC(=O)Nc2ccc(Cl)cc2)csc1=Nc1ccccc1F [Compound 160, 2-(2-fluorophenylimino)-3-methyl-4-[N-(4-chlorophenyl)carbamoylmethyl]-1,3-thiazol-4-ine hydrochloride] | 88%
6 | CC(C)Oc1cc(N=c2scc(CC(=O)Nc3ccc(Cl)cc3)n2C)c(F)cc1Cl.Cl [Compound 161, 2-(4-chloro-5-isopropoxy-2-fluorophenylimino)-3-methyl-4-[N-(4-chlorophenyl)carbamoylmethyl]-1,3-thiazol-4-ine hydrochloride] | 86%
7 | Cc1ccc(NC(=O)Cc2csc(=Nc3ccc(Br)cc3)n2C)cc1.Cl [Compound 162, 2-(4-bromophenylimino)-3-methyl-4-[N-(4-methylphenyl)carbamoylmethyl]-1,3-thiazol-4-ine hydrochloride] | 89%
8 | Cc1ccc(NC(=O)Cc2csc(=Nc3ccccc3F)n2C)cc1.Cl [Compound 167, 2-(2-fluorophenylimino)-3-methyl-4-[N-(4-methylphenyl)carbamoylmethyl]-1,3-thiazol-4-ine hydrochloride] | 88%
9 | Cc1ccc(NC(=O)Cc2csc(=Nc3cc(OC(C)C)c(Cl)cc3F)n2C)cc1.Cl [Compound 168, 2-(4-chloro-5-isopropoxy-2-fluorophenylimino)-3-methyl-4-[N-(4-methylphenyl)carbamoylmethyl-]-1,3-thiazol-4-ine hydrochloride] | 92%
10 | Cl.Cn1c(CC(=O)Nc2ccc([N+](=O)[O-])cc2)csc1=Nc1ccc(OC(F)(F)F)cc1 [Compound 176, 2-(4-trifluoromethoxyphenylimino)-3-methyl-4-[N-(4-nitrophenyl)carbamoylmethyl]-4-thiazoline hydrochloride] | 96%
11 | CC(C)Oc1cc(N=c2scc(CC(=O)Nc3ccc(Br)cc3)n2C)c(F)cc1Cl.Cl [Compound 185, 2-(4-chloro-5-isopropoxy-2-fluorophenylimino)-3-methyl-4-[N-(4-bromophenyl)carbamoylmethyl]-1,3-thiazol-4-ine hydrochloride] | 97%
12 | Cl.Cn1c(CC(=O)Nc2ccc(OC(F)(F)F)cc2)csc1=Nc1ccc(F)cc1F [Compound 192, 2-(2,4-difluorophenylimino)-3-methyl-4-[N-(4-trifluoromethoxyphenyl)carbamoylmethyl]-1,3-thiazol-4-ine hydrochloride] | 92%
13 | COc1ccc(NC(=O)Cc2csc(=Nc3ccc(C)cc3C)n2C)cc1.Cl [Compound 196, 2-(2,4-dimethylphenylimino)-3-methyl-4-[N-(4-methoxyphenyl)carbamoylmethyl]-1,3-thiazol-4-ine hydrochloride] | 92%
14 | COc1ccc(NC(=O)Cc2csc(=Nc3cc(C)ccc3OC)n2C)cc1.Cl [Compound 198, 2-(2-methoxy-5-methylphenylimino)-3-methyl-4-[N-(4-methoxyphenyl)carbamoylmethyl]-1,3-thiazol-4-ine hydrochloride] | 95%
15 | COc1ccc(NC(=O)Cc2csc(=Nc3ccc(Cl)cc3F)n2C)cc1.Cl [Compound 207, 2-(4-chloro-2-fluorophenylimino)-3-methyl-4-[N-(4-methoxyphenyl)carbamoylmethyl]-1,3-thiazol-4-ine hydrochloride] | 93%
16 | COc1ccc(NC(=O)Cc2csc(=Nc3cc(OC(C)C)c(Cl)cc3F)n2C)cc1.Cl [Compound 208, 2-(4-chloro-5-isopropoxy-2-fluorophenylimino)-3-methyl-4-[N-(4-methoxyphenyl)carbamoylmethyl]-1,3-thiazol-4-ine hydrochloride] | 97%
17 | COc1ccc(NC(=O)Cc2csc(=Nc3ccc(OC(F)(F)F)cc3)n2C)cc1.Cl [Compound 209, 2-(4-trifluoromethoxyphenylimino)-3-methyl-4-[N-(4-methoxyphenyl)carbamoylmethyl]-1,3-thiazol-4-ine hydrochloride] | 97%

Row | SMILES | Inhibiting Ratio (%) (at 250 ppm)
18 | Cl.Cn1c(CC(=O)Nc2ccc(C#N)cc2)csc1=Nc1ccc(OC(F)(F)F)cc1 [Compound 215, 2-(4-trifluoromethoxyphenylimino)-3-methyl-4-[N-(4-cyanophenyl)carbamoylmethyl]-4-thiazoline hydrochloride] | 93%
19 | CCCCc1ccc(N=c2scc(CC(=O)Nc3ccc(C#N)cc3)n2C)cc1.Cl [Compound 221, 2-[4-(n-butyl)phenylimino]-3-methyl-4-[N-(4-cyanophenyl)carbamoylmethyl]-4-thiazoline hydrochloride] | 87%
20 | CC(C)Oc1cc(N=c2scc(CC(=O)Nc3ccc(C#N)cc3)n2C)c(F)cc1Cl.Cl [Compound 226, 2-(4-chloro-5-isopropoxy-2-fluorophenylimino)-3-methyl-4-[N-(4-cyanophenyl)carbamoylmethyl]-4-thiazoline hydrochloride] | 92%
21 | Cc1ccc(N=c2scc(CC(=O)Nc3ccc(C)c(Cl)c3)n2C)c(C)c1.Cl [Compound 227, 2-(2,4-dimethylphenylimino)-3-methyl-4-[N-(3-chloro-4-methylphenyl)carbamoylmethyl]-4-thiazoline hydrochloride] | 97%
22 | Cc1ccc(NC(=O)Cc2csc(=Nc3ccc(C#N)cc3)n2C)cc1Cl.Cl [Compound 228, 2-(4-cyanophenylimino)-3-methyl-4-[N-(3-chloro-4-methylphenyl)carbamoylmethyl]-4-thiazoline hydrochloride] | 97%
23 | Cc1ccc(NC(=O)Cc2csc(=Nc3ccc(Br)cc3)n2C)cc1Cl.Cl [Compound 229, 2-(4-bromophenylimino)-3-methyl-4-[N-(3-chloro-4-methylphenyl)carbamoylmethyl]-4-thiazoline hydrochloride] | 93%
24 | Cc1ccc(NC(=O)Cc2csc(=Nc3cc(Cl)cc(Cl)c3)n2C)cc1Cl.Cl [Compound 230, 2-(3,5-dichlorophenylimino)-3-methyl-4-[N-(3-chloro-4-methylphenyl)carbamoylmethyl]-4-thiazoline hydrochloride] | 93%
25 | Cc1ccc(NC(=O)Cc2csc(=Nc3ccc(OC(F)(F)F)cc3)n2C)cc1Cl.Cl [Compound 231, 2-(4-trifluoromethoxyphenylimino)-3-methyl-4-[N-(3-chloro-4-methylphenyl)carbamoylmethyl]-4-thiazoline hydrochloride] | 93%
26 | Cc1ccc(NC(=O)Cc2csc(=Nc3ccc(F)cc3F)n2C)cc1Cl.Cl [Compound 232, 2-(2.4-difluorophenylimino)-3-methyl-4-[N-(3-chloro-4-methylphenyl)carbamoylmethyl]-4-thiazoline hydrochloride] | 92%
27 | Cc1ccc(NC(=O)Cc2csc(=Nc3ccc(Cl)cc3)n2C)cc1Cl.Cl [Compound 233, 2-(4-chlorophenylimino)-3-methyl-4-[N-(3-chloro-4-methylphenyl)carbamoylmethyl]-4-thiazoline hydrochloride] | 97%
28 | Cc1ccc(NC(=O)Cc2csc(=Nc3ccccc3F)n2C)cc1Cl.Cl [Compound 235, 2-(2-fluorophenylimino)-3-methyl-4-[N-(3-chloro-4-methylphenyl)carbamoylmethyl]-4-thiazoline hydrochloride] | 92%
29 | Cc1ccc(NC(=O)Cc2csc(=Nc3cccc(F)c3)n2C)cc1Cl.Cl [Compound 236, 2-(3-fluorophenylimino)-3-methyl-4-[N-(3-chloro-4-methylphenyl)carbamoylmethyl]-1,3-thiazol-4-ine hydrochloride] | 97%
30 | Cc1ccc(NC(=O)Cc2csc(=Nc3ccc(F)c(Cl)c3)n2C)cc1Cl.Cl [Compound 238, 2-(3-chloro-4-fluorophenylimino)-3-methyl-4-[N-(3-chloro-4-methylphenyl)carbamoylmethyl]-1,3-thiazol-4-ine hydrochloride] | 93%
31 | COc1ccc(C)cc1N=c1scc(CC(=O)Nc2ccc(C)c(Cl)c2)n1C.Cl [Compound 239, 2-(2-methoxy-5-methylphenylimino)-3-methyl-4-[N-(3-chloro-4-methylphenyl)carbamoylmethyl]-1,3-thiazol-4-ine hydrochloride] | 92%
32 | Cc1ccc(NC(=O)Cc2csc(=Nc3ccc(Oc4ccccc4)cc3)n2C)cc1Cl.Cl [Compound 240, 3-methyl-2-(4-phenoxyphenylimino)-4-[N-(3-chloro-4-methylphenyl)carbamoylmethyl]-1,3-thiazol-4-ine hydrochloride] | 88%
33 | Cc1ccc(NC(=O)Cc2csc(=Nc3cc(OC(C)C)c(Cl)cc3F)n2C)cc1Cl.Cl [Compound 257, 2-(4chloro-2-fluoro-5-isopropoxyphenylimino)-3-methyl-4-[N-(3-chloro-4-methylphenyl)carbamoylmethyl]-1,3-thiazol-4-ine hydrochloride] | 88%
